Results taken from US9101133B2, “Phenyl-substituted bicyclooctane-1,3-dione-derivatives” (BAYER INTELLECTUAL PROPERTY GMBH, priority 2010, dated 2015).

Tests used:
[1] = test system: green peach aphid (Myzus persicae); test: Myzus test (MYZUPE spray treatment); type: in vivo; settings: application rate of 500 g/ha; Chinese cabbage leaf discs sprayed; after 6 days
Experimental: Solvents: 78 parts by weight of acetone
• 1.5 parts by weight of dimethylformamide Emulsifier: 0.5 part by weight of alkylaryl polyglycol ether
To produce a suitable preparation of active compound, one part by weight of active compound is mixed with the stated amounts of solvents and emulsifier, and the concentrate is diluted with emulsifier-containing water to the desired concentration.
Discs of Chinese cabbage leaves (Brassica pekinensis) which are infested by all stages of the green peach aphid (Myzus persicae) are sprayed with an active compound preparation of the desired concentration.
After 6 days, the effect in % is determined 100% means that all aphids have been killed; 0% means that none of the aphids have been killed.

[2] = test system: larvae of the mustard beetle (Phaedon cochleariae); test: Phaedon test (PHAECO spray treatment); type: in vivo; settings: application rate of 500 g/ha; Chinese cabbage leaf discs sprayed; after 7 days
Experimental: Phaedon Test […] Spray Treatment Solvents: 78.0 parts by weight of acetone • • 1.5 parts by weight of dimethylformamide Emulsifier: 0.5 part by weight of alkylaryl polyglycol ether To produce a suitable preparation of active compound, one part by weight of active compound is mixed with the stated amounts of solvents and emulsifier, and the concentrate is diluted with emulsifier-containing water to the desired concentration. Discs of Chinese cabbage leaves (Brassica pekinensis) are sprayed with an active compound preparation of the desired concentration and, after drying, populated with larvae of the mustard beetle (Phaedon cochleariae).

ALOMY = test: Herbicidal post-emergence action; type: in vivo; settings: 80 g/ha, visual assessment after about three weeks, 100% = plants have died
Experimental: (§1) 2. Herbicidal Post-Emergence Action
(§2) • Seeds of monocotylidonous and dicotylidonous weed and crop plants are placed in sandy loam in wood fibre pots, covered with soil and cultivated in a greenhouse under good growth conditions. Two to three weeks after sowing, the test plants are treated at the one-leaf stage. The test compounds, formulated as wettable powders (WP), are then with a water application rate of 600 l/ha (converted), with 0.2% of wetting agent added, sprayed onto the green parts of the plants in different amounts. After the test plants have been kept in the greenhouse under optimum growth conditions for about three weeks, the effect of the preparations is assessed visually in comparison to untreated controls (herbicidal effect in percent: 100% effect=the plants have died, 0% effect=like control plants). Post-Emergence, 80 g/ha

AVEFA = test: Herbicidal post-emergence action; type: in vivo; settings: 80 g/ha, visual assessment after about three weeks, 100% = plants have died
Experimental: as §1, §2

ECHCG = test: Herbicidal post-emergence action; type: in vivo; settings: 80 g/ha, visual assessment after about three weeks, 100% = plants have died
Experimental: as §1, §2

LOLMU = test: Herbicidal post-emergence action; type: in vivo; settings: 80 g/ha, visual assessment after about three weeks, 100% = plants have died
Experimental: as §1, §2

SETVI = test: Herbicidal post-emergence action; type: in vivo; settings: visual assessment after about three weeks, 100% = plants have died; for herbicidal effect in percent, SETVI: 80 g/ha; for pest or weed control at 80 g/ha: 504 h, read-out: herbicidal effect in percent, SETVI
Experimental: as §1, §2

VERPE = test: Herbicidal post-emergence action; type: in vivo; settings: 80 g/ha, visual assessment after about three weeks, 100% = plants have died
Experimental: as §1, §2

[3] = test system: monocotylidonous and dicotylidonous weed and crop plants; test: Herbicidal pre-emergence action; type: in vivo; settings: 320 g/ha, visual assessment after three weeks, 100% = plants have died; for herbicidal effect in percent, ALOMY: ALOMY = Alopecurus myosuroides; for herbicidal effect in percent, AVEFA: AVEFA = Avena fatua; for herbicidal effect in percent, ECHCG: ECHCG = Echinochloa crus-galli; for herbicidal effect in percent, LOLMU: LOLMU = Lolium multiflorum; for herbicidal effect in percent, SETVI: SETVI = Setaria viridis; for herbicidal effect in percent, VIOTR: VIOTR = Viola tricolor
Text: 1. Herbicidal Pre-Emergence Action
• Seeds of monocotylidonous and dicotylidonous weed and crop plants are placed in sandy loam in wood fibre pots and covered with soil. The test compounds, formulated in the form of wettable powders (WP), are then, as an aqueous suspension with a water application rate of 600 l/ha (converted), with 0.2% of wetting agent added, applied to the surface of the covering soil in different amounts. • After the treatment, the pots are placed in a greenhouse and kept under good growth conditions for the test plants. The visual assessment of the emergence damage on the test plants is carried out after a trial period of three weeks by comparison with the untreated controls (herbicidal effect in percent: 100% effect=the plants have died, 0% effect=like control plants).

POLCO = test: Herbicidal post-emergence action; type: in vivo; settings: 80 g/ha, visual assessment after about three weeks, 100% = plants have died
Experimental: as §1, §2

Structure (SMILES): CCc1cc(C)cc(CC)c1C1=C(OCc2ccccc2)C2CC(C=CC#N)CC2C1=O (mixture of isomers) [I-a-59]
- effect in % (aphids killed) [1]: 100%

Structure (SMILES): C=C1CC2C(=O)C(c3c(CC)cc(C)cc3CC)=C(OCc3ccccc3)C2C1 (centres unmarked) [I-a-0, 3-(Benzyloxy)-2-(2,6-diethyl-4-methylphenyl)-5-methylene-4,5,6,6a-tetrahydropentalen-1(3aH)-one]
- melting point: 87 to 88 °C

Structure (SMILES): CCc1cc(C)cc(CC)c1C1C(=O)C2CC(COC(=O)Nc3ccccc3)CC2C1=O (mixture of isomers) [I-a-44]
- effect in % (beetle larvae killed) [2]: 100%

Structure (SMILES): CCc1cc(C)cc(CC)c1C1C(=O)C2CC(CCC#N)CC2C1=O (mixture of isomers) [I-a-37]
- herbicidal effect in percent, ALOMY (ALOMY): 100%
- herbicidal effect in percent, AVEFA (AVEFA): 100%
- herbicidal effect in percent, ECHCG (ECHCG): 100%
- herbicidal effect in percent, LOLMU (LOLMU): 100%
- herbicidal effect in percent, SETVI (SETVI): 100%
- herbicidal effect in percent, VERPE (VERPE): 80%

Structure (SMILES): CCc1cc(C)cc(CC)c1C1=C(OC(=O)C(C)(C)C)C2CC(C3OCCO3)CC2C1=O (mixture of isomers) [I-b-4]
- herbicidal effect in percent, ALOMY (ALOMY): 100%
- herbicidal effect in percent, AVEFA (AVEFA): 90%
- herbicidal effect in percent, ECHCG (ECHCG): 100%
- herbicidal effect in percent, LOLMU (LOLMU): 100%
- herbicidal effect in percent, SETVI (SETVI): 100%
- herbicidal effect in percent, ALOMY [3]: 100%
- herbicidal effect in percent, AVEFA [3]: 90%
- herbicidal effect in percent, ECHCG [3]: 100%
- herbicidal effect in percent, LOLMU [3]: 100%
- herbicidal effect in percent, SETVI [3]: 100%
- herbicidal effect in percent, VIOTR [3]: 90%

Structure (SMILES): CCc1cc(C)cc(CC)c1C1C(=O)C2CC(C3OCCO3)CC2C1=O (centres unmarked) [I-a-10]
- herbicidal effect in percent, ALOMY (ALOMY): 100%
- herbicidal effect in percent, AVEFA (AVEFA): 100%
- herbicidal effect in percent, ECHCG (ECHCG): 100%
- herbicidal effect in percent, LOLMU (LOLMU): 100%
- herbicidal effect in percent, SETVI (SETVI): 100%
- herbicidal effect in percent, ALOMY [3]: 100%
- herbicidal effect in percent, AVEFA [3]: 90%
- herbicidal effect in percent, ECHCG [3]: 100%
- herbicidal effect in percent, LOLMU [3]: 100%
- herbicidal effect in percent, SETVI [3]: 100%
- herbicidal effect in percent, VIOTR [3]: 90%

Structure (SMILES): CCc1cc(C)cc(CC)c1C1=C(O)C2CC(C=NOC)CC2C1=O (centres unmarked) [I-a-13, 5-(2,6-diethyl-4-methylphenyl)-6-hydroxy-4-oxo-1,2,3,3a,4,6a-hexahydropentalene-2-carbaldehyde O-methyloxime]
- herbicidal effect in percent, ALOMY (ALOMY): 100%
- herbicidal effect in percent, AVEFA (AVEFA): 100%
- herbicidal effect in percent, ECHCG (ECHCG): 100%
- herbicidal effect in percent, LOLMU (LOLMU): 100%
- pest or weed control at 80 g/ha (SETVI): 100%
- herbicidal effect in percent, AVEFA [3]: 80%
- herbicidal effect in percent, LOLMU [3]: 100%
- herbicidal effect in percent, STEME ([3]; STEME = Stellaria media): 100%
- herbicidal effect in percent, VERPE ([3]; VERPE = Veronica persica): 90%
- herbicidal effect in percent, VIOTR [3]: 100%

Structure (SMILES): CCc1cc(C)cc(CC)c1C1C(=O)C2CC(C#N)CC2C1=O (centres unmarked) [I-a-4, 5-(2,6-Diethyl-4-methylphenyl)-4,6-dioxooctahydropentalene-2-carbonitrile]
- herbicidal effect in percent, ALOMY (ALOMY): 50%
- herbicidal effect in percent, AVEFA (AVEFA): 90%
- herbicidal effect in percent, ECHCG (ECHCG): 100%
- herbicidal effect in percent, LOLMU (LOLMU): 60%
- pest or weed control at 80 g/ha (SETVI): 100%
- herbicidal effect in percent, ECHCG [3]: 100%
- herbicidal effect in percent, SETVI [3]: 90%

Structure (SMILES): CCc1cc(C)cc(CC)c1C1C(=O)C2CC(COC(=O)NCc3ccccc3)CC2C1=O (mixture of isomers) [I-a-47]
- effect in % (beetle larvae killed) [2]: 100%

Structure (SMILES): CCOC(=O)OC1=C(c2c(CC)cc(C)cc2CC)C(=O)C2CC(C=CC#N)CC12 (mixture of isomers) [I-c-22]
- herbicidal effect in percent, ALOMY (ALOMY): 80%
- herbicidal effect in percent, AVEFA (AVEFA): 100%
- herbicidal effect in percent, ECHCG (ECHCG): 100%
- herbicidal effect in percent, SETVI (SETVI): 100%
- herbicidal effect in percent, VERPE (VERPE): 90%
- effect in % (aphids killed) [1]: 100%

Structure (SMILES): CCc1cc(C)cc(CC)c1C1C(=O)C2CC(C3OCCCO3)CC2C1=O (centres unmarked) [I-a-5, 2-(2,6-Diethyl-4-methylphenyl)-5-(1,3-dioxan-2-yl)tetrahydropentalene-1,3(2H,3aH)-dione]
- herbicidal effect in percent, ALOMY (ALOMY): 100%
- herbicidal effect in percent, AVEFA (AVEFA): 100%
- herbicidal effect in percent, ECHCG (ECHCG): 100%
- herbicidal effect in percent, LOLMU (LOLMU): 100%
- pest or weed control at 80 g/ha (SETVI): 100%
- herbicidal effect in percent, ALOMY [3]: 100%
- herbicidal effect in percent, AVEFA [3]: 90%
- herbicidal effect in percent, LOLMU [3]: 100%
- herbicidal effect in percent, SETVI [3]: 90%

Structure (SMILES): CCc1cc(C)cc(CC)c1C1C(=O)C2CC(O)CC2C1=O (centres unmarked) [I-a-23]
- herbicidal effect in percent, ALOMY (ALOMY): 70%
- herbicidal effect in percent, AVEFA (AVEFA): 60%
- herbicidal effect in percent, ECHCG (ECHCG): 100%
- herbicidal effect in percent, LOLMU (LOLMU): 90%
- herbicidal effect in percent, SETVI (SETVI): 100%
- herbicidal effect in percent, ECHCG [3]: 100%
- herbicidal effect in percent, SETVI [3]: 90%

Structure (SMILES): CCc1cc(C)cc(CC)c1C1C(=O)C2CC(CO)CC2C1=O (centres unmarked) [I-a-7]
- herbicidal effect in percent, ALOMY (ALOMY): 100%
- herbicidal effect in percent, AVEFA (AVEFA): 70%
- herbicidal effect in percent, ECHCG (ECHCG): 100%
- herbicidal effect in percent, LOLMU (LOLMU): 100%
- herbicidal effect in percent, SETVI (SETVI): 80%
- herbicidal effect in percent, AVEFA [3]: 80%
- herbicidal effect in percent, ECHCG [3]: 100%
- herbicidal effect in percent, LOLMU [3]: 100%

Structure (SMILES): CCc1cc(C)cc(CC)c1C1=C(OC(=O)C(C)(C)C)C2CC(/C=N/OC)CC2C1=O (centres unmarked) [I-b-1, 2-(2,6-Diethyl-4-methylphenyl)-5-(methoxyimino)methyl-3-oxo-3,3a,4,5,6,6a-hexahydropentalen-1-yl 2,2-dimethylpropanoate]
- herbicidal effect in percent, ALOMY (ALOMY): 100%
- herbicidal effect in percent, AVEFA (AVEFA): 100%
- herbicidal effect in percent, ECHCG (ECHCG): 100%
- herbicidal effect in percent, LOLMU (LOLMU): 100%
- pest or weed control at 80 g/ha (SETVI): 100%
- herbicidal effect in percent, ALOMY [3]: 100%
- herbicidal effect in percent, AVEFA [3]: 90%
- herbicidal effect in percent, ECHCG [3]: 100%
- herbicidal effect in percent, LOLMU [3]: 100%
- herbicidal effect in percent, SETVI [3]: 100%
- herbicidal effect in percent, VIOTR [3]: 90%

Structure (SMILES): CCc1cc(C)cc(CC)c1C1C(=O)C2CC(COCOC)CC2C1=O (centres unmarked) [I-a-40, 2-(2,6-diethyl-4-methylphenyl)-5-methoxymethoxymethyltetrahydropentalene-1,3-dione]
- herbicidal effect in percent, ALOMY (ALOMY): 100%
- herbicidal effect in percent, AVEFA (AVEFA): 90%
- herbicidal effect in percent, LOLMU (LOLMU): 100%
- herbicidal effect in percent, POLCO (POLCO): 100%
- pest or weed control at 80 g/ha (SETVI): 90%
